{"source": "patent US9682063B2", "about": "“HCD formulation for cancer treatment” (National Dong Hwa University, priority 2015, dated 2017)", "origin": "cited, not measured here", "key": {"[1]": {"system": "CML K562 cells", "conditions": "background statement"}, "[2]": {"conditions": "background statement"}}, "data": [{"smiles": "CC1=CCCC2C1(C)CCC(C)C2(C)CCC1=CC(=O)OC1O", "note": "(centres unmarked) [HCD, 16-Hydroxycleroda-3,13-dien-15,16-olide]", "values": [{"measurement": "apoptosis in CML K562 cells", "setting": "[1]", "value": "induces apoptosis in CML K562 cells"}, {"measurement": "water solubility", "setting": "[2]", "value": "poor water solubility"}]}]}
